# Measured values reported in PubChem BioAssay (NCI).
#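 Assay format: 96-well plates, 48-hour exposure. The concentration for 50% growth inhibition is given as GI50. TGI denotes the concentration required for complete inhibition of growth.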
# Experiments:
# Assay in all cases: NCI anticancer screen, dose series, 48 h
# NCI-H460 lung = system: NCI-H460 lung
# DU-145 prostate = system: DU-145 prostate
# T-47D breast = system: T-47D breast
# M14 melanoma = system: M14 melanoma
# TK-10 renal = system: TK-10 renal
# A549 NSCLC = system: A549 NSCLC
# COLO 205 colon = system: COLO 205 colon
# CAKI-1 renal = system: CAKI-1 renal
# NCI/ADR-RES ovarian = system: NCI/ADR-RES ovarian
# BT-549 breast = system: BT-549 breast
# SK-OV-3 ovarian = system: SK-OV-3 ovarian
# OVCAR-8 ovarian = system: OVCAR-8 ovarian
# SW-620 colon = system: SW-620 colon
# SF-268 CNS = system: SF-268 CNS
# 786-0 renal = system: 786-0 renal
# SF-539 CNS = system: SF-539 CNS
# IGROV1 ovarian = system: IGROV1 ovarian
# HS 578T breast = system: HS 578T breast
# SNB-19 CNS = system: SNB-19 CNS
# UACC-62 melanoma = system: UACC-62 melanoma
# NCI-H522 lung = system: NCI-H522 lung
# HL-60(TB) leukemia = system: HL-60(TB) leukemia
# OVCAR-5 ovarian = system: OVCAR-5 ovarian
# SK-MEL-5 melanoma = system: SK-MEL-5 melanoma
# SF-295 CNS = system: SF-295 CNS
# HOP-62 NSCLC = system: HOP-62 NSCLC
# MALME-3M melanoma = system: MALME-3M melanoma
# RPMI-8226 leukemia = system: RPMI-8226 leukemia
# NCI-H226 lung = system: NCI-H226 lung
# UO-31 renal = system: UO-31 renal
# LOX IMVI melanoma = system: LOX IMVI melanoma
# SK-MEL-28 melanoma = system: SK-MEL-28 melanoma
# HT29 colon = system: HT29 colon
# SN12C renal = system: SN12C renal
# RXF 393 renal = system: RXF 393 renal
# ACHN renal = system: ACHN renal
# OVCAR-4 ovarian = system: OVCAR-4 ovarian
# EKVX NSCLC = system: EKVX NSCLC
# MOLT-4 leukemia = system: MOLT-4 leukemia
# MDA-N = system: MDA-N
# SNB-75 CNS = system: SNB-75 CNS
# K-562 leukemia = system: K-562 leukemia
# MCF7 breast = system: MCF7 breast
# HCC-2998 colon = system: HCC-2998 colon
# PC-3 prostate = system: PC-3 prostate
# MDA-MB-231 breast = system: MDA-MB-231 breast
# OVCAR-3 ovarian = system: OVCAR-3 ovarian
# UACC-257 melanoma = system: UACC-257 melanoma
# A498 renal = system: A498 renal
# SK-MEL-2 melanoma = system: SK-MEL-2 melanoma
# HCT-116 colon = system: HCT-116 colon
# MDA-MB-435 = system: MDA-MB-435
# CCRF-CEM leukemia = system: CCRF-CEM leukemia
# NCI-H23 lung = system: NCI-H23 lung
# SR leukemia = system: SR leukemia
# HOP-92 NSCLC = system: HOP-92 NSCLC
# U251 CNS = system: U251 CNS
# HCT-15 colon = system: HCT-15 colon
structure (smiles),measurement,setting,value
COc1cc(O)c2c(=O)c(OC)c(-c3ccc(OC)c(OC)c3)oc2c1.[Sn],TGI,NCI-H460 lung,> 100 µM
same,GI50,DU-145 prostate,> 100 µM
same,TGI,DU-145 prostate,> 100 µM
same,GI50,T-47D breast,7.91 µM
same,TGI,T-47D breast,> 100 µM
same,GI50,M14 melanoma,> 100 µM
same,TGI,M14 melanoma,> 100 µM
same,TGI,TK-10 renal,> 100 µM
same,TGI,A549 NSCLC,> 100 µM
same,TGI,COLO 205 colon,> 100 µM
same,TGI,CAKI-1 renal,> 100 µM
same,GI50,NCI/ADR-RES ovarian,> 100 µM
same,TGI,NCI/ADR-RES ovarian,> 100 µM
same,TGI,BT-549 breast,> 100 µM
same,TGI,SK-OV-3 ovarian,> 100 µM
same,GI50,OVCAR-8 ovarian,> 100 µM
same,TGI,OVCAR-8 ovarian,> 100 µM
same,TGI,SW-620 colon,> 100 µM
same,GI50,SF-268 CNS,> 100 µM
same,TGI,SF-268 CNS,> 100 µM
same,TGI,786-0 renal,> 100 µM
same,TGI,SF-539 CNS,> 100 µM
same,GI50,IGROV1 ovarian,> 100 µM
same,TGI,IGROV1 ovarian,> 100 µM
same,TGI,HS 578T breast,> 100 µM
same,GI50,SNB-19 CNS,> 100 µM
same,TGI,SNB-19 CNS,> 100 µM
same,GI50,UACC-62 melanoma,> 100 µM
same,TGI,UACC-62 melanoma,> 100 µM
same,TGI,NCI-H522 lung,> 100 µM
same,TGI,HL-60(TB) leukemia,> 100 µM
same,GI50,OVCAR-5 ovarian,> 100 µM
same,TGI,OVCAR-5 ovarian,> 100 µM
same,GI50,SK-MEL-5 melanoma,32.9 µM
same,TGI,SK-MEL-5 melanoma,> 100 µM
same,GI50,SF-295 CNS,17.4 µM
same,TGI,SF-295 CNS,> 100 µM
same,GI50,HOP-62 NSCLC,> 100 µM
same,TGI,HOP-62 NSCLC,> 100 µM
same,GI50,MALME-3M melanoma,> 100 µM
same,TGI,MALME-3M melanoma,> 100 µM
same,TGI,RPMI-8226 leukemia,> 100 µM
same,TGI,NCI-H226 lung,> 100 µM
same,TGI,UO-31 renal,> 100 µM
same,GI50,LOX IMVI melanoma,29.8 µM
same,TGI,LOX IMVI melanoma,> 100 µM
same,GI50,SK-MEL-28 melanoma,> 100 µM
same,TGI,SK-MEL-28 melanoma,> 100 µM
same,GI50,HT29 colon,> 100 µM
same,TGI,HT29 colon,> 100 µM
same,TGI,SN12C renal,> 100 µM
same,TGI,RXF 393 renal,> 100 µM
same,GI50,ACHN renal,> 100 µM
same,TGI,ACHN renal,> 100 µM
same,GI50,OVCAR-4 ovarian,8.24 µM
same,TGI,OVCAR-4 ovarian,> 100 µM
same,GI50,EKVX NSCLC,> 100 µM
same,TGI,EKVX NSCLC,> 100 µM
same,GI50,MOLT-4 leukemia,80.1 µM
same,TGI,MOLT-4 leukemia,> 100 µM
same,TGI,MDA-N,> 100 µM
same,TGI,SNB-75 CNS,> 100 µM
same,GI50,K-562 leukemia,> 100 µM
same,TGI,K-562 leukemia,> 100 µM
same,GI50,MCF7 breast,> 100 µM
same,TGI,MCF7 breast,> 100 µM
same,GI50,HCC-2998 colon,> 100 µM
same,TGI,HCC-2998 colon,> 100 µM
same,GI50,PC-3 prostate,68.5 µM
same,TGI,PC-3 prostate,> 100 µM
same,GI50,MDA-MB-231 breast,> 100 µM
same,TGI,MDA-MB-231 breast,> 100 µM
same,GI50,OVCAR-3 ovarian,> 100 µM
same,TGI,OVCAR-3 ovarian,> 100 µM
COc1c(OC)c(OC)c(-c2cc(=O)c3c(OC)c(OC)c(OC)c(OC)c3o2)c(OC)c1OC,TGI,NCI-H460 lung,> 100 µM
same,TGI,DU-145 prostate,> 100 µM
same,TGI,T-47D breast,47.9 µM
same,TGI,M14 melanoma,> 100 µM
same,TGI,TK-10 renal,85.3 µM
same,TGI,A549 NSCLC,> 100 µM
same,TGI,COLO 205 colon,> 100 µM
same,TGI,CAKI-1 renal,> 100 µM
same,TGI,UACC-257 melanoma,> 100 µM
same,TGI,A498 renal,89.1 µM
same,TGI,SK-MEL-2 melanoma,> 100 µM
same,TGI,HCT-116 colon,44.9 µM
same,TGI,NCI/ADR-RES ovarian,78.9 µM
same,TGI,BT-549 breast,> 100 µM
same,TGI,SK-OV-3 ovarian,> 100 µM
same,TGI,OVCAR-8 ovarian,> 100 µM
same,TGI,SW-620 colon,> 100 µM
same,TGI,SF-268 CNS,> 100 µM
same,TGI,786-0 renal,37 µM
same,TGI,MDA-MB-435,> 100 µM
same,TGI,SF-539 CNS,> 100 µM
same,TGI,IGROV1 ovarian,64.2 µM
same,TGI,CCRF-CEM leukemia,> 100 µM
same,TGI,HS 578T breast,> 100 µM
same,TGI,SNB-19 CNS,> 100 µM
same,TGI,UACC-62 melanoma,> 100 µM
same,TGI,NCI-H522 lung,33.8 µM
same,TGI,HL-60(TB) leukemia,> 100 µM
same,TGI,OVCAR-5 ovarian,> 100 µM
same,TGI,SK-MEL-5 melanoma,74.9 µM
same,TGI,SF-295 CNS,> 100 µM
same,TGI,NCI-H23 lung,95.7 µM
same,TGI,HOP-62 NSCLC,> 100 µM
same,TGI,MALME-3M melanoma,> 100 µM
same,TGI,SR leukemia,> 100 µM
same,TGI,RPMI-8226 leukemia,> 100 µM
same,TGI,NCI-H226 lung,> 100 µM
same,TGI,UO-31 renal,> 100 µM
same,TGI,LOX IMVI melanoma,> 100 µM
same,TGI,SK-MEL-28 melanoma,> 100 µM
same,TGI,HT29 colon,86.4 µM
same,TGI,HOP-92 NSCLC,44.9 µM
same,TGI,SN12C renal,> 100 µM
same,TGI,RXF 393 renal,81.2 µM
same,TGI,ACHN renal,> 100 µM
same,TGI,OVCAR-4 ovarian,33.7 µM
same,TGI,EKVX NSCLC,> 100 µM
same,TGI,MOLT-4 leukemia,> 100 µM
same,TGI,U251 CNS,> 100 µM
same,TGI,MDA-N,> 100 µM
same,TGI,SNB-75 CNS,> 100 µM
same,TGI,K-562 leukemia,> 100 µM
same,TGI,HCC-2998 colon,> 100 µM
same,TGI,MDA-MB-231 breast,> 100 µM
same,TGI,OVCAR-3 ovarian,33.5 µM
same,TGI,HCT-15 colon,> 100 µM
